The record followed here is patent US9409122B2, “Gas capture process” (Commonwealth Scientific and Industrial Research Organisation, priority 2011, dated 2016).

This data set in a line: CO2 desorption at 90° C. Type of data set: physicochemical. As for the experimental part:
The test results (shown in the accompanying figures) are a comparison of four compounds within general formula (I) with 4-aminopiperidine in terms of their CO2 absorption at 40° C. (FIG. 2(a)) and CO2 desorption at 90° C. (FIG. 2(b)). These absorption experiments were carried with CO2 gas (99%).
In FIG. 3, CO2 absorption and desorption results for Compounds 1 to 4 and 4-aminopiperidine (2M and 1.7M in one case due to the material availability) were compared with MEA (4M) and piperazine (Pz) (2M). An MEA concentration of 4M was chosen in this comparison to match the total amine/nitrogen concentration of diamines (2×2M).

With `C1CNCCN1` [Pz, piperazine], the stability of carbamate entry is “reasonably stable”.
